From patent US20260297037A1, “COMPOUND COMPRISING N-METHYLPIPERAZINE ETHANOL CARBAMATE STRUCTURE AND USE THEREOF” (KOREA INSTITUTE OF RADIOLOGICAL & MEDICAL SCIENCES, priority 2023, published 2026)

Experiments:
Format in all cases: in vivo, C57BL/6 mice
[1] = system: radiation-induced pulmonary fibrosis (RIPF); assay: Degree of inflammation and fibrosis, H&E and Masson's Trichrome staining, radiation-induced pulmonary fibrosis; details: SBRT 90 Gy, nintedanib 60 mg/kg, oral, 2 weeks after radiation exposure, vs untreated
Protocol: (§1) One hour before stereotactic body radiation therapy (SBRT; 90 Gy, 4 mm collimator), DCTP and nintedanib, an FDA-approved drug known to inhibit pulmonary fibrosis, were orally administered to seven-week-old male C57BL/6 mice. The degree of pulmonary fibrosis and the inhibitory effect on radiation-induced lung injury were observed two weeks after radiation exposure.
(§2) The DCTP drug was administered at a dose of 30 mg/kg, and nintedanib was administered once daily (o.d.) at a dose of 60 mg/kg.
In addition, to analyze the degree of inflammatory response and the degree of fibrosis two weeks after radiation exposure, H&E staining and Masson's Trichrome staining were performed, and the results are shown in FIG. 5.
(§3) One hour prior to stereotactic body radiation therapy (SBRT; 90 Gy, 4 mm collimator), PXDP and nintedanib, an FDA-approved drug known to inhibit pulmonary fibrosis, were orally administered to seven-week-old male C57BL/6 mice. The degree of pulmonary fibrosis and the inhibitory effect on radiation-induced lung injury were observed two weeks after radiation exposure.
(§4) The PXDP drug was administered at a dose of 100 mg/kg, and nintedanib was administered once daily (o.d.) at a dose of 60 mg/kg. To analyze the degree of inflammatory response and the degree of fibrosis 2 weeks after radiation exposure, H&E staining and Masson's Trichrome staining were performed, and the results are shown in FIG. 11.

[2] = system: idiopathic pulmonary fibrosis induced by bleomycin; assay: Degree of inflammation and fibrosis, H&E and Masson's Trichrome staining, bleomycin-induced idiopathic pulmonary fibrosis; details: bleomycin 1.5 U/kg, nintedanib 60 mg/kg, oral once daily for two weeks from day 14, vs untreated
Protocol: (§5) Each drug was administered starting 14 days after the administration of bleomycin. The drug was orally administered at a dose of 20 mg/kg once daily for two weeks (a total of 13 administrations). The control drug, nintedanib, was administered at a dose of 60 mg/kg, and the co-administration group was orally administered nintedanib (60 mg/kg) together with DCTP (20 mg/kg) once daily for two weeks (a total of 13 administrations).
The results of H&E and Masson's Trichrome staining performed to evaluate the degree of inflammation and fibrosis are shown in FIG. 3.
(§6) Each drug was administered starting 14 days after the administration of bleomycin. Nintedanib and PXDP were each orally administered at a dose of 60 mg/kg once daily for two weeks (a total of 13 administrations), and the group treated with the combination was orally administered nintedanib (60 mg/kg) together with PXDP (60 mg/kg) once daily for two weeks (a total of 13 administrations).
The results of H&E and Masson's Trichrome staining performed to evaluate the degree of inflammation and fibrosis are shown in FIG. 8.

[3] = system: radiation-induced pulmonary fibrosis (RIPF); assay: Inhibitory effect on radiation-induced pulmonary fibrosis, Micro-CT imaging; details: SBRT 90 Gy, 2 weeks after radiation exposure; for degree of fibrosis by Micro-CT imaging: vs untreated
Protocol: as §1, §2, §3, §4

[4] = system: idiopathic pulmonary fibrosis induced by bleomycin; assay: Inhibitory effect on idiopathic pulmonary fibrosis induced by bleomycin, Micro-CT imaging; details: bleomycin 1.5 U/kg, nintedanib 60 mg/kg, oral once daily for two weeks from day 14, 4 weeks after bleomycin, vs untreated
Protocol: as §5, §6

[5] = Example 3, FIG. 5, DCTP 30 mg/kg
[6] = Example 5, FIG. 8, PXDP 60 mg/kg
[7] = Example 6, FIG. 10, PXDP 100 mg/kg, nintedanib 60 mg/kg, oral
[8] = Example 5, FIG. 7, PXDP 60 mg/kg
[9] = Example 6, FIG. 11, PXDP 100 mg/kg

Compound	degree of inflammation and fibrosis by H&E and Masson's Trichrome staining [1, 5]	degree of inflammation and fibrosis by H&E and Masson's Trichrome staining [2, 6]	effect compared with nintedanib (Micro-CT imaging) ([3]; Example 6, FIG. 10, PXDP 100 mg/kg vs nintedanib 60 mg/kg, oral)	degree of fibrosis by Micro-CT imaging [3, 7]	degree of fibrosis by Micro-CT imaging [4, 8]	degree of inflammation and fibrosis by H&E and Masson's Trichrome staining [1, 9]	degree of inflammation and fibrosis by H&E and Masson's Trichrome staining ([2]; Example 2, FIG. 3, DCTP 20 mg/kg)	degree of fibrosis by Micro-CT imaging ([3]; Example 3, FIG. 4, nintedanib 60 mg/kg oral once daily)	degree of fibrosis by Micro-CT imaging ([4]; Example 2, FIG. 2, DCTP 20 mg/kg)
COc1cc2ncnc(N(C(=O)OCCN3CCN(C)CC3)c3ccc(F)c(Cl)c3)c2cc1NC(=O)/C=C/CN1CCCCC1 [DCTP, 2-(4-methylpiperazin-1-yl)ethyl (E)-(3-chloro-4-fluorophenyl) (7-methoxy-6-(4-(piperidin-1-yl)but-2-enamido)quinazolin-4-yl) carbamate]	reduction in fibrosis and inflammation in the lungs								
CN1CCN(CCOC(=O)N(Cc2ccc(C(F)(F)F)nc2)c2ccc(Cc3c[nH]c4ncc(Cl)cc34)cn2)CC1 [PXDP, 2-(4-methylpiperazin-1-yl)ethyl (5-((5-chloro-1H-pyrrolo[2,3-b]pyridin-3-yl)methyl)pyridin-2-yl)((6-(trifluoromethyl)pyridin-3-yl)methyl) carbamate]		alleviation of pulmonary fibrosis and inflammation	superior to that of nintedanib	reduction in the degree of fibrosis	reduction in the degree of fibrosis	alleviation of fibrosis and inflammation in the lungs			
COC(=O)c1ccc2c(c1)NC(=O)/C2=C(\Nc1ccc(N(C)C(=O)CN2CCN(C)CC2)cc1)c1ccccc1 [nintedanib]	reduction in fibrosis and inflammation in the lungs	alleviation of pulmonary fibrosis and inflammation		reduction in the degree of fibrosis	reduction in the degree of fibrosis	alleviation of fibrosis and inflammation in the lungs	alleviation of pulmonary fibrosis and inflammation	reduction in the degree of fibrosis	reduction in the degree of fibrosis
